Counter-ions that a name gives are not always drawn.
System: MTT (mouse pheochromocytoma)
Assay: IC50 of cell viability (ATP content)
Settings: (24 or 48 h)
How it was run: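 MTT mouse pheochromocytoma cells in white 1536-well plates were treated for 24 or 48 hrs with library compounds at 8 final concentrations from 0.5 nM to 46 µM. ATP content was measured with CellTiter-Glo luminescence, using positive-control wells as 100% and DMSO wells as 0%. IC50 came from a four-parameter logistic fit.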

Row | SMILES | IC50 of cell viability [µM]
1 | CCCCC(CC)COC(=O)c1ccccc1C(=O)OCC(CC)CCCC (stereo not given) [Di(2-ethylhexyl) phthalate] | > 46
2 | CC(=O)Nc1ccc(OC(C)=O)cc1 [Diacetamate] | > 46
3 | CC(=O)Nc1ccc(OCCOCCOc2ccc(NC(C)=O)cc2)cc1 [Diamfenetida] | > 46
4 | CC(=O)Nc1c(I)c(NC(C)=O)c(I)c(C(=O)O)c1I [Diatrizoic acid dihydrate] | > 46
5 | CN1C(=O)CN=C(c2ccccc2)c2cc(Cl)ccc21 [Diazepam] | > 46
6 | CCOP(=S)(OCC)Oc1cc(C)nc(C(C)C)n1 [Diazinon] | > 46
7 | CN(Cc1ccccc1)Cc1ccccc1 [Dibemethine] | > 46
8 | CN(C)CCN1C(=O)c2ccccc2N(C)c2ccccc21 [Dibenzepina] | > 46
9 | N=C(N)c1ccc(OCCCOc2ccc(C(=N)N)cc2Br)c(Br)c1 [Dibromopropamidine Dihydrochloride] | > 46
10 | CCCCOc1cc(C(=O)NCCN(CC)CC)c2ccccc2n1 [Dibucaine] | > 46
11 | CC(C)(C)c1ccc2c(S(=O)(=O)[O-])c(C(C)(C)C)ccc2c1 [Dibunic acid] | > 46
12 | NCCN.[Cl-].[Cl-].[Pt+2] [Dichloro(ethylenediamine)platinum(II)] | > 46
13 | O=C(O)C(Cl)Cl [Dichloroacetic acid] | > 46
14 | N[S+](=O)([O-])c1cc(Cl)c(Cl)c([S+](N)(=O)[O-])c1 [Dichlorphenamide] | > 46
15 | COP(=O)(OC)OC=C(Cl)Cl [Dichlorvos (Vapona)] | > 46
16 | O=C(NC(O)C(Cl)(Cl)Cl)NC(O)C(Cl)(Cl)Cl (stereo not given) [Dicloralurea] | > 46
17 | Cc1onc(-c2c(Cl)cccc2Cl)c1C(=O)N[C@@H]1C(=O)N2[C@@H]1SC(C)(C)[C@@H]2C(=O)[O-] [Dicloxacillin sodium salt monohydrate] | > 46
18 | O\C1=C(/C/C2=C(\O)C3=C(OC2=O)C=CC=C3)C(=O)OC4=C1C=CC=C4 [Dicumarol] | > 46
19 | C1CCC(NC2CCCCC2)CC1 [Dicyclohexylamine] | > 46
20 | CCN(CC)CCOC(=O)C1(C2CCCCC2)CCCCC1 [Dicyclomine] | > 46
21 | C1\C=C/C2C\3CC(\C=C3)C12 (stereo not given) [Dicyclopentadiene] | > 46
22 | S=C(SSC(=S)N1CCCCC1)N1CCCCC1 [Dicyclopentamethylenethiuram disulfide] | > 46
23 | OC[C@@H]1CC[C@H](n2cnc3c(O)ncnc32)O1 [Didanosine] | > 46
24 | ClC/1=C(Cl)/[C@@]2(Cl)[C@H]3[C@H]4C[C@H]([C@@H]5O[C@H]45)[C@H]3[C@]1(Cl)C2(Cl)Cl [Dieldrin] | > 46
25 | C/C=C(\C(=C\C)c1ccc(O)cc1)c1ccc(O)cc1 [Dienestrol] | > 46
26 | CCOC(=O)c1ccccc1C(=O)OCC [Diethyl phthalate] | > 46
27 | CCN(CC)C(=O)N1CCN(C)CC1.O=C(O)CC(O)(CC(=O)O)C(=O)O [Diethylcarbamazine citrate] | > 46
28 | COCCOCCO [Diethylene glycol monomethyl ether] | > 46

Row | SMILES | IC50 of cell viability [µM]
29 | NCCNCCN [Diethylenetriamine] | > 46
30 | NC(=O)Oc1ccc(Cc2ccccc2)cc1 [Difenano] | > 46
31 | C[C@H]1C[C@H]2[C@@H]3C[C@H](F)C/4=C/C(=O)/C=C\[C@]4(C)[C@@]3(F)[C@@H](O)C[C@]2(C)[C@@]1(OC(C)=O)C(=O)COC(C)=O [Diflorasone diacetate] | > 46
32 | O=C(O)c1cc(-c2ccc(F)cc2F)ccc1O [Diflunisal] | > 46
33 | O=C1c2ccccc2CN2C(=O)c3ccccc3CN12 [Diftalone] | > 46
34 | CC1OC(OC2C(O)CC(OC3C(O)CC(OC4CCC5(C)C(CCC6C5CCC5(C)C(C7=CC(=O)OC7)CCC65O)C4)OC3C)OC2C)CC(O)C1O (stereo not given) [Digitoxin] | > 46
35 | C[C@H]1O[C@H](C[C@H](O)[C@@H]1O)O[C@H]2[C@@H](O)C[C@@H](O[C@@H]2C)O[C@H]3[C@@H](O)C[C@@H](O[C@@H]3C)O[C@H]4CC[C@@]5(C)[C@H](CC[C@@H]6[C@@H]5C[C@@H](O)[C@]7(C)[C@H](CC[C@]67O)C/8=C/C(=O)OC8)C4 [Digoxin] | > 46
36 | CC(C)CC1C(=O)N2CCCC2C2(O)OC(NC(=O)C3CC4c5cccc6[nH]cc(c56)CC4N(C)C3)(C(C)C)C(=O)N12 (stereo not given) [Dihydroergocriptine] | > 46
37 | CC(C)[C@@]1(NC(=O)[C@@H]2C[C@@H]3c4cccc5[nH]cc(c45)C[C@H]3N(C)C2)O[C@@]2(O)[C@@H]3CCCN3C(=O)[C@H](Cc3ccccc3)N2C1=O [Dihydroergocristine] | > 46
38 | COc1ccc2c3c1OC1[C@H](O)CCC4[C@@H](C2)N(C)CC[C@]314 (stereo not given in full) [Dihydroisocodeine] | > 46
39 | CN1CC[C@]23c4c5ccc(O)c4OC2C(O)CCC3[C@H]1C5 (stereo not given in full) [Dihydromorphine] | > 46
40 | CC(C)NC(C)C [Diisopropyl amine] | > 46
41 | C=Cc1ccc(C=C)cc1.C=Cc1ccccc1.CC(C)N(Cc1ccccc1)C(C)C [Diisopropylaminomethyl-polystyrene] | > 46
42 | CC1(C)OC[C@@H]2O[C@@]3(C(=O)O)OC(C)(C)O[C@@H]3[C@@H]2O1 [Dikegulac] | > 46
43 | CN(C(=O)C(Cl)Cl)c1ccc(OC(=O)c2ccco2)cc1 [Diloxanide furoate] | > 46
44 | Cc1ccc2c(c1)[C@]13CCCC[C@@H]1[C@@H](C2)N(C)CC3 [Dimemorfan phosphate] | > 46
45 | CC(O)CN(C)C (stereo not given) [Dimepranolum] | > 46
46 | CN(C)CCCN1c2ccccc2C(C)(C)c2ccccc21 [Dimetacrine] | > 46
47 | CCCCc1cc2ccccc2c(OCCN(C)C)n1 [Dimethisoquin hydrochloride] | > 46
48 | CC(CN1c2ccccc2Sc2ccc([S+](=O)([O-])N(C)C)cc21)N(C)C (stereo not given) [Dimethothiazine] | > 46
49 | COC(=O)C(Cl)C(=O)OC [Dimethyl chloromalonate] | > 46
50 | COC(=O)c1ccccc1C(=O)OC [Dimethyl phthalate] | > 46
51 | Nc1ccc(C(=O)Nc2ccccc2N)cc1 [Dinaline] | > 46
52 | CCCCC[C@H](O)/C=C\[C@H]1[C@H](C/C=C\CCCC(=O)O)[C@@H](O)C[C@H]1O.COC(N)(CO)CO [Dinoprost trometamol] | > 46
53 | CCCCC[C@H](O)/C=C/[C@@H]1[C@@H](C/C=C\CCCC(=O)O)[C@@H](O)C[C@H]1O [Dinoprost tromethamine] | > 46
54 | O=[N+]([O-])c1cccc([S+](=O)([O-])NCCN[S+](=O)([O-])c2cccc([N+](=O)[O-])c2)c1 [Dinsed] | > 46
55 | CCCCCCCCOC(=O)c1ccccc1C(=O)OCCCCCCCC [Dioctyl phthalate] | > 46
